For 46 molecules, IC50 and inhibition results are on record in ChEMBL document CHEMBL4811250, “Discovery and Optimization of 2H-1λ2-Pyridin-2-one Inhibitors of Mutant Isocitrate Dehydrogenase 1 for the Treatment of Cancer” (J Med Chem, 2021).

The target in assay [1] is Isocitrate dehydrogenase [NADP] cytoplasmic (Homo sapiens, UniProt O75874, R132H). The assay can be described thus: Inhibition of IDH1 R132H mutant (unknown origin) assessed as reduction in NADPH consumption using alpha-KG as substrate incubated for 5 mins by diaphorase/resazurin-coupled system. In general terms: The colour change of resazurin is a common sign of viable cells or microbes.

Assay [2] addresses Isocitrate dehydrogenase [NADP] cytoplasmic (Homo sapiens, UniProt O75874, R132C). The assay can be described thus: Inhibition of IDH1 R132C mutant (unknown origin) assessed as reduction in NADPH consumption using alpha-KG as substrate incubated for 5 mins by diaphorase/resazurin-coupled system.
Assay [3] concerns Isocitrate dehydrogenase [NADP] cytoplasmic (Homo sapiens), O75874 [R132C]. The assay can be described thus: Inhibition of IDH1 R132C mutant (unknown origin) assessed as reduction in NADPH consumption using alpha-KG as substrate at 38 uM incubated for 5 mins by diaphorase/resazurin-coupled system relative to control.
Assay [4] deals with Isocitrate dehydrogenase [NADP] cytoplasmic (Homo sapiens), O75874 [R132H]. The assay can be described thus: Inhibition of IDH1 R132H mutant (unknown origin) assessed as reduction in NADPH consumption using alpha-KG as substrate at 38 uM incubated for 5 mins by diaphorase/resazurin-coupled system relative to control.
Sequence of Isocitrate dehydrogenase [NADP] cytoplasmic (Homo sapiens), O75874 [R132H] (O75874 whole entry R132H): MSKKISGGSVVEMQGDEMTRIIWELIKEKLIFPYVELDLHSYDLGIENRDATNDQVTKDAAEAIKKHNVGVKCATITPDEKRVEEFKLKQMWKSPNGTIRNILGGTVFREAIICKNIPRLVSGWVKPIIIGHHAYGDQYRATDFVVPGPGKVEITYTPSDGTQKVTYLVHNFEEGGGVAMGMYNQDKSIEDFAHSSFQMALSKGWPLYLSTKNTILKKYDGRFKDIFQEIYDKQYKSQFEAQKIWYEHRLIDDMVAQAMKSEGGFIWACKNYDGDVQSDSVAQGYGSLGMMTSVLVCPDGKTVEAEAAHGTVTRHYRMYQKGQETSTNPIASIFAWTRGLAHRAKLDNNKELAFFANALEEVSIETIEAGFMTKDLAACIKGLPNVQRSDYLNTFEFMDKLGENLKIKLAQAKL

Sequence of Isocitrate dehydrogenase [NADP] cytoplasmic (Homo sapiens), O75874 [R132C] (O75874 whole entry R132C): as the sequence (O75874 whole entry R132H) above, with H132C counted along it
Sequence of Isocitrate dehydrogenase [NADP] cytoplasmic (Homo sapiens, UniProt O75874, R132H) (O75874 2-414 R132H limits assumed): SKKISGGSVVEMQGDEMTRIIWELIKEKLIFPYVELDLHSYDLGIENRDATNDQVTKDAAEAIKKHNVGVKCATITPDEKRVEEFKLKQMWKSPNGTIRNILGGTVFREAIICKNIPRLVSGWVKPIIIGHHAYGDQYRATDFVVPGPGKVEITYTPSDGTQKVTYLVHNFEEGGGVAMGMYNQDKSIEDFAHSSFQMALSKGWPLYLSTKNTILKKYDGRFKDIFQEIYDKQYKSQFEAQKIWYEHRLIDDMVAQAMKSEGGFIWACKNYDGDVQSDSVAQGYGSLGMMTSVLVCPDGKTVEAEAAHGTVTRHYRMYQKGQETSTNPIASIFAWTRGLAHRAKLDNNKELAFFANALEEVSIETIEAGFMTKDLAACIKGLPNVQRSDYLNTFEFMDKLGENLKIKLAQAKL
Sequence of Isocitrate dehydrogenase [NADP] cytoplasmic (Homo sapiens, UniProt O75874, R132C) (O75874 2-414 R132C limits assumed): as the sequence (O75874 2-414 R132H limits assumed) above, with H131C counted along it

Consider `CCc1cccc(C)c1-n1c2c(cc(-c3nc(-c4ccc(Cl)cc4)cs3)c1=O)C(=O)CC(C)(C)C2`, for which the IC50 – broadly, the midpoint of a concentration-inhibition curve – amounted to 790 nM in assay [1] and 500 nM in assay [2]. For the same molecule, the inhibition (usually the relative decrease from the control value, in per cent) turned out to be 86% in assay [3] and 89% in assay [4].

As for `COc1cccc(C(=O)O)c1-n1c2c(cc(-c3nc(-c4ccc(Cl)cc4)cs3)c1=O)C(=O)CC(C)(C)C2`, the concentration for half-maximal inhibition (IC50) worked out at 910 nM in assay [1] and 2000 nM in assay [2]. In addition, the inhibition in assay [3] was determined as 108%; in assay [4] it was 102%.

Regarding `CCc1cccc(CC)c1-n1c(CCC(F)(F)F)c(C(=O)N2CCNCC2)cc(-c2nc(-c3ccc(Cl)cc3)cs2)c1=O`, the figures for the IC50 in assay [1] and in assay [2] were 240 nM and 600 nM, respectively. Besides, the results for the inhibition in assay [3] and in assay [4] were 82% and 101%, respectively.

As for `CCc1cccc(CC)c1-n1c(C)c(C(=O)N2CCN(C)CC2)cc(-c2nc(-c3ccc(Cl)cc3)cs2)c1=O`, the IC50 in assay [1] is 2900 nM; in assay [2] it was 1200 nM. For the same molecule, the inhibition worked out at 86% in assay [3] and 88% in assay [4].

Turning to `COc1ccc(C(=O)O)cc1-n1c2c(cc(-c3nc(-c4ccc(Cl)cc4)cs3)c1=O)C(=O)CC(C)(C)C2`, the IC50 was determined as 12000 nM in assay [1] and 14000 nM in assay [2]. Further, the figures for the inhibition in assay [3] and in assay [4] were 86% and 108%, respectively.

`CCc1cccc(CC)c1-n1c(C=C(C)C)c(C(=O)N2CCNC(C#N)C2)cc(-c2nc(-c3ccc(Cl)cc3)cs2)c1=O` (stereo not given): the concentration for half-maximal inhibition (IC50) in assay [1] was 160 nM; in assay [2], 56 nM.

Consider `CCc1ccccc1-n1c(C=C(C)C)c(C(=O)N2CCNCC2)cc(-c2nc(-c3ccc(Cl)cc3)cs2)c1=O`, for which the concentration for half-maximal inhibition (IC50) in assay [1] came to 56 nM; in assay [2] it was 160 nM.

As to `CCc1cccc(CC)c1-n1c(C)c(C(=O)N(C)C)cc(-c2nc(-c3ccc(Cl)cc3)cs2)c1=O`, the IC50 in assay [1] stood at 1200 nM; in assay [2], 2000 nM. Besides, the inhibition in assay [3] was determined as 86%; in assay [4], 98%.

For `CCc1cccc(CC)c1-n1c(C)c(C(=O)NCCO)cc(-c2nc(-c3ccc(Cl)cc3)cs2)c1=O`, the values for the IC50 in assay [1] and in assay [2] were 420 nM and 2000 nM, respectively. Besides, the inhibition in assay [3] was 96%; in assay [4] it was 104%.

For `COc1ccc(OC)c(-n2c3c(cc(-c4ccc(-c5ccccc5)cc4)c2=O)C(=O)CC(C)(C)C3)c1`, the 50% inhibitory concentration (IC50) in assay [1] and in assay [2] was greater than 38000 nM in each case.

For the molecule `COc1ccncc1-n1c2c(cc(-c3nc(-c4ccc(Cl)cc4)cs3)c1=O)C(=O)CC(C)(C)C2`, the half-inhibitory concentration (IC50) in assay [1] and in assay [2] was greater than 38000 nM throughout.

On to `COc1ccc(OC)c(-n2c3c(cc(-c4nc(-c5ccc(Cl)cc5)cs4)c2=O)C(=O)CC(C)(C)C3)c1`, for which the IC50 came out at 1600 nM in assay [1] and 1000 nM in assay [2]. For the same molecule, the inhibition in assay [3] worked out at 85%; in assay [4] it was 84%.

For `CCc1cccc(CC)c1-n1c(C)c(C(=O)NCC(C)C)cc(-c2nc(-c3ccc(Cl)cc3)cs2)c1=O`, the results for the IC50 in assay [1] and in assay [2] were greater than 38000 nM and 810 nM, respectively. The inhibition in assay [3] turned out to be 56%.

Consider `CCc1cccc(CC)c1-n1c(C)c(C(=O)NCCOC)cc(-c2nc(-c3ccc(Cl)cc3)cs2)c1=O`, for which the figures for the IC50 in assay [1] and in assay [2] were 2100 nM and 730 nM, respectively. Besides, the inhibition in assay [3] amounted to 102%; in assay [4] it was 92%.

Regarding `CCc1cccc(CC)c1-n1c(CC2CCOCC2)c(C(=O)N2CCNCC2)cc(-c2nc(-c3ccc(Cl)cc3)cs2)c1=O`, the 50% inhibitory concentration (IC50) in assay [1] was 1100 nM; in assay [2], 980 nM. The inhibition in assay [3] came to 79%; in assay [4] it was 93%.

With `COc1ncccc1-n1c2c(cc(-c3nc(-c4ccc(Cl)cc4)cs3)c1=O)C(=O)CC(C)(C)C2`, the results for the half-maximal inhibitory concentration (IC50) in assay [1] and in assay [2] were 1000 nM and 1300 nM, respectively. Also, the figures for the inhibition in assay [3] and in assay [4] were 80% and 97%, respectively.

Regarding `CCc1cccc(CC)c1-n1c(CC2CCOC2)c(C(=O)N2CCNCC2)cc(-c2nc(-c3ccc(Cl)cc3)cs2)c1=O` (stereo not given), the results for the IC50 in assay [1] and in assay [2] were 75 nM and 130 nM, respectively. Further, the inhibition in assay [3] worked out at 91%; in assay [4], 105%.

As for `CC1(C)CC(=O)c2cc(-c3nc(-c4ccc(Cl)cc4)cs3)c(=O)n(-c3ccccc3OC(F)(F)F)c2C1`, the results for the IC50 in assay [1] and in assay [2] were 570 nM and 280 nM, respectively. The values for the inhibition in assay [3] and in assay [4] were 78% and 98%, respectively.

In the case of `CCc1cccc(CC)c1-n1c(C=C(C)C)c(C(=O)N2CCNC(CO)C2)cc(-c2nc(-c3ccc(Cl)cc3)cs2)c1=O` (stereo not given), the half-maximal inhibitory concentration (IC50) in assay [1] was 49 nM; in assay [2], 60 nM.

In the case of `COc1ccc(-n2c3c(cc(-c4nc(-c5ccc(Cl)cc5)cs4)c2=O)C(=O)CC(C)(C)C3)c(OC)c1`, the half-inhibitory concentration (IC50) in assay [1] and in assay [2] was greater than 38000 nM throughout.

With `CCc1cccc(Cl)c1-n1c(C=C(C)C)c(C(=O)N2CCNCC2)cc(-c2nc(-c3ccc(Cl)cc3)cs2)c1=O`, the IC50 in assay [1] was determined as 44 nM; in assay [2], 55 nM.

Consider `COc1ccc(OC)c(-n2c3c(cc(C(=O)NCc4ccc(Cl)cc4)c2=O)C(=O)CC(C)(C)C3)c1`, for which the half-inhibitory concentration (IC50) in assay [2] was greater than 38000 nM. Also, in assay [4], the inhibition was 35%.

Regarding `CCc1cccc(CC)c1-n1c(C)c(C(=O)OC)cc(-c2nc(-c3ccc(Cl)cc3)cs2)c1=O`, the 50% inhibitory concentration (IC50) in assay [1] and in assay [2] was greater than 38000 nM each time.

As for `COc1ccc(OC)c(-n2c3c(cc(-n4cc(-c5ccccc5)cn4)c2=O)C(=O)CC(C)(C)C3)c1`, the half-maximal inhibitory concentration (IC50) in assay [2] is greater than 38000 nM. Further, the inhibition in assay [4] was determined as 31%.

With `CCc1cccc(C)c1-n1c(C=C(C)C)c(C(=O)N2CCNCC2)cc(-c2nc(-c3ccc(Cl)cc3)cs2)c1=O`, the IC50 in assay [1] turned out to be 270 nM; in assay [2] it was 2200 nM.

As for `CC(C)=Cc1c(C(=O)N2CCNCC2)cc(-c2nc(-c3ccc(Cl)cc3)cs2)c(=O)n1-c1ccccc1`, the half-inhibitory concentration (IC50) in assay [1] is 330 nM; in assay [2], 3200 nM.

For the molecule `COc1ccc(OC)c(-n2c3c(cc(-c4nc5cc(Cl)ccc5s4)c2=O)C(=O)CC(C)(C)C3)c1`, the IC50 in assay [1] and in assay [2] was greater than 38000 nM each time.

As for `CCOc1ccccc1-n1c2c(cc(-c3nc(-c4ccc(Cl)cc4)cs3)c1=O)C(=O)CC(C)(C)C2`, the IC50 in assay [2] turned out to be 410 nM. For the same molecule, the inhibition worked out at 81% in assay [3] and 88% in assay [4].

Turning to `CC1(C)CC(=O)c2cc(-c3nc(-c4ccc(Cl)cc4)cs3)c(=O)n(C3CCCCC3)c2C1`, the IC50 in assay [1] and in assay [2] was greater than 38000 nM throughout.

Take `COc1ccc(OC)c(-n2c3c(cc(-c4cccc(-c5ccc(Cl)cc5)c4)c2=O)C(=O)CC(C)(C)C3)c1`: the half-inhibitory concentration (IC50) in assay [1] and in assay [2] was greater than 38000 nM in each case.

As for `CCc1cccc(CC)c1-n1c(C=C(C)C)c(C(=O)N2CCNC(CC)C2)cc(-c2nc(-c3ccc(Cl)cc3)cs2)c1=O` (stereo not given), the 50% inhibitory concentration (IC50) in assay [1] is 100 nM; in assay [2], 72 nM.

Consider `COc1ccc(OC)c(-n2c3c(cc(-c4nc5ccc(Cl)cc5s4)c2=O)C(=O)CC(C)(C)C3)c1`, for which the IC50 in assay [2] came out at 2500 nM. Further, the inhibition stood at 94% in assay [3] and 50% in assay [4].

On to `COc1ccc(OC)c(-n2c3c(cc(-c4cn(-c5ccc(Cl)cc5)cn4)c2=O)C(=O)CC(C)(C)C3)c1`, for which, in assay [2], the IC50 is greater than 38000 nM. In addition, the inhibition in assay [4] stood at 41%.

Consider `CCOC(=O)c1cc(-c2nc(-c3ccc(Cl)cc3)cs2)c(=O)n(-c2c(CC)cccc2CC)c1-c1ccccc1`, for which the IC50 in assay [1] and in assay [2] was greater than 38000 nM in each case.

`COc1ccc(OC)c(-n2c3c(cc(-c4ccn(-c5ccccc5)n4)c2=O)C(=O)CC(C)(C)C3)c1`: the half-maximal inhibitory concentration (IC50) in assay [1] was found to be 3100 nM. For the same molecule, the inhibition in assay [3] was determined as 46%; in assay [4], 84%.

As to `CCc1cccc(CC)c1-n1c(C=C(C)C)c(C(=O)N2CC3(CNC3)C2)cc(-c2nc(-c3ccc(Cl)cc3)cs2)c1=O`, the figures for the IC50 in assay [1] and in assay [2] were 240 nM and 64 nM, respectively.

As to `CCc1cccc(CC)c1-n1c(C)c(C(=O)NC)cc(-c2nc(-c3ccc(Cl)cc3)cs2)c1=O`, the concentration for half-maximal inhibition (IC50) in assay [1] was 1500 nM. Besides, the inhibition in assay [3] came out at 64%; in assay [4], 87%.

Take `COc1ccc(OC)c(-n2cccc(-c3nc(-c4ccc(Cl)cc4)cs3)c2=O)c1`: the half-maximal inhibitory concentration (IC50) in assay [1] and in assay [2] was greater than 38000 nM in each case.

Turning to `COc1ccc(OC)c(-n2c3c(cc(-c4ncc(-c5ccc(Cl)cc5)s4)c2=O)C(=O)CC(C)(C)C3)c1`, the IC50 in assay [1] and in assay [2] was greater than 38000 nM throughout.

On to `CCc1cccc(CC)c1-n1c(C=C(C)C)c(C(=O)N2CCNC(C(N)=O)C2)cc(-c2nc(-c3ccc(Cl)cc3)cs2)c1=O` (stereo not given), for which the IC50 in assay [1] stood at 94 nM; in assay [2], 42 nM.

With `COc1ccc(OC)c(-n2c3c(cc(-c4nc(-c5ccc(Cl)cc5)cs4)c2=O)CCC(C)(C)C3)c1`, the half-inhibitory concentration (IC50) in assay [1] came out at 3600 nM. Further, the inhibition stood at 64% in assay [3] and 87% in assay [4].

`COc1ccc(OC)c(-n2c(C)ccc(-c3nc(-c4ccc(Cl)cc4)cs3)c2=O)c1`: the half-maximal inhibitory concentration (IC50) in assay [1] and in assay [2] was greater than 38000 nM in each case.

As for `CCc1ccc(C)cc1-n1c(C=C(C)C)c(C(=O)N2CCNCC2)cc(-c2nc(-c3ccc(Cl)cc3)cs2)c1=O`, the IC50 was 44 nM in assay [1] and 110 nM in assay [2].

As to `CCCC1CN(C(=O)c2cc(-c3nc(-c4ccc(Cl)cc4)cs3)c(=O)n(-c3c(CC)cccc3CC)c2C=C(C)C)CCN1` (stereo not given), the IC50 came to 130 nM in assay [1] and 82 nM in assay [2].

Turning to `COc1c(C(=O)O)cccc1-n1c2c(cc(-c3nc(-c4ccc(Cl)cc4)cs3)c1=O)C(=O)CC(C)(C)C2`, the IC50 in assay [1] was 14000 nM. For the same molecule, the values for the inhibition in assay [3] and in assay [4] were 65% and 82%, respectively.

With `CCc1cccc(CC)c1-n1c(C=C(C)C)c(C(=O)N2CCNC(C(F)(F)F)C2)cc(-c2nc(-c3ccc(Cl)cc3)cs2)c1=O` (stereo not given), the half-maximal inhibitory concentration (IC50) is 360 nM in assay [1] and 130 nM in assay [2].
